Some results are limits rather than exact numbers.

Drawing on patent US11560385B2, “Proteasome activity enhancing compounds” (Proteostasis Therapeutics, Inc., priority 2018, dated 2023), this text covers IC50 for 27 molecules.

This assay has as its target USP14 (Homo sapiens (Human), UniProt P54578). Put plainly: Usp14 inhibition assay (Example 57B, B-series compounds). The class given is biochemical. As to conditions: IC50 class; average value from a minimum of two experimental determinations. The source says: Example 57B: Usp14 Inhibition Assay
The IC50 values in the Table below represent the average value from a minimum of two experimental determinations.

Chain of USP14 (P54578 whole entry, looked up): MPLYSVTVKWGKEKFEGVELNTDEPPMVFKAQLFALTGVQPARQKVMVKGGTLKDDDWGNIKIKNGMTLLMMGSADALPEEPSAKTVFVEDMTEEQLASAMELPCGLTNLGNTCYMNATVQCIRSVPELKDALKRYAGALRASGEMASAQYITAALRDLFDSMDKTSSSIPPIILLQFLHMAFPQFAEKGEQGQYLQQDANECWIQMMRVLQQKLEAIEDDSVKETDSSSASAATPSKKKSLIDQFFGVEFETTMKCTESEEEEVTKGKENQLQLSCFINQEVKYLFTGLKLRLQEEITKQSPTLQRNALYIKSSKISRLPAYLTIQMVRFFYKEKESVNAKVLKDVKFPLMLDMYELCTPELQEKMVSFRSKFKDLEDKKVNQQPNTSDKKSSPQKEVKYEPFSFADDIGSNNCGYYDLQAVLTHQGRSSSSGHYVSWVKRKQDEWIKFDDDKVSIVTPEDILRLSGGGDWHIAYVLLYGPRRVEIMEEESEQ

For the molecule `Cc1c(F)c(C(=O)CN2C3CCC2[C@@H](O)C3)c(C)n1-c1ccc(C#N)c(F)c1` (mixture of isomers) [Example 120B, (±)-2-Fluoro-4-(3-fluoro-4-(2-((2R)-2-hydroxy-7-azabicyclo[2.2.1]heptan-7-yl)acetyl)-2,5-dimethyl-1H-pyrrol-1-yl)benzonitrile], the concentration for half-maximal inhibition (IC50) – broadly, the concentration needed to halve the response being measured – is < 50 nM.
In the case of `Cc1c(F)c(C(=O)CN2[C@@H]3CC[C@H]2[C@H](C)C3)c(C)n1-c1ccc(C#N)cc1` (racemic) [Example 121B, (±)-4-(3-Fluoro-2,5-dimethyl-4-(2-((1S,2R,4R)-2-methyl-7-azabicyclo[2.2.1]heptan-7-yl)acetyl)-1H-pyrrol-1-yl)benzonitrile] it was 50 to 500 nM; in that of `Cc1cc(C(=O)CN2[C@@H]3CC[C@H]2[C@H](C)C3)c(C)n1-c1ccc(C#N)cc1` (racemic) [Example 122B, (±)-4-(2,5-Dimethyl-3-(2-((1S,2R,4R)-2-methyl-7-azabicyclo[2.2.1]heptan-7-yl)acetyl)-1H-pyrrol-1-yl)benzonitrile], 50 to 500 nM.
The same measure for `Cc1nc(Cc2c(Br)c(C(=O)CN3C4CCC3[C@@H](O)C4)c(C)n2-c2ccc(C#N)cc2)cs1` (mixture of isomers) [Example 129B, (±)-4-(3-Bromo-4-(2-((2R)-2-hydroxy-7-azabicyclo[2.2.1]heptan-7-yl)acetyl)-5-methyl-2-((2-methylthiazol-4-yl)methyl)-1H-pyrrol-1-yl)benzonitrile]: 50 to 500 nM; for `Cc1cc(C(=O)CN2C3CCC2[C@@H](CO)C3)c(C)n1-c1ccc(C#N)cc1` (mixture of isomers) [Example 130B, (±)-4-(3-(2-((2R)-2-(Hydroxymethyl)-7-azabicyclo[2.2.1]heptan-7-yl)acetyl)-2,5-dimethyl-1H-pyrrol-1-yl)benzonitrile]: 50 to 500 nM.
The same measure for `Cc1c(C(=O)CN2[C@@H]3CC[C@H]2[C@@H](O)C3)cc(C2CC(F)(F)C2)n1-c1ccc(C#N)cc1` (racemic) [Example 131B, (±)-4-(5-(3,3-Difluorocyclobutyl)-3-(2-((1R,2R,4S)-2-hydroxy-7-azabicyclo[2.2.1]heptan-7-yl)acetyl)-2-methyl-1H-pyrrol-1-yl)benzonitrile]: 50 to 500 nM.
In the case of `Cc1c(C(=O)CN2C3CCC2[C@@H](O)C3)cc(C2CC(F)C2)n1-c1ccc(C#N)cc1` (mixture of isomers) [Example 132B, (±)-4-(5-(3-Fluorocyclobutyl)-3-(2-((2R)-2-hydroxy-7-azabicyclo[2.2.1]heptan-7-yl)acetyl)-2-methyl-1H-pyrrol-1-yl)benzonitrile], the IC50 is < 50 nM.
In the case of `Cc1c(C(=O)CN2[C@@H]3CC[C@H]2[C@@H](O)C3)cc(CC2CCC2)n1-c1ccc(C#N)cc1` (racemic) [Example 133B, (±)-4-(5-(Cyclobutylmethyl)-3-(2-((1R,2R,4S)-2-hydroxy-7-azabicyclo[2.2.1]heptan-7-yl)acetyl)-2-methyl-1H-pyrrol-1-yl)benzonitrile] it was < 50 nM.
For the molecule `Cc1c(C(=O)CN2[C@@H]3CC[C@H]2[C@@H](O)C3)cc(CC2CC(C)(C)C2)n1-c1ccc(C#N)cc1` (racemic) [Example 134B, (±)-4-(5-((3,3-Dimethylcyclobutyl)methyl)-3-(2-((1R,2R,4S)-2-hydroxy-7-azabicyclo[2.2.1]heptan-7-yl)acetyl)-2-methyl-1H-pyrrol-1-yl)benzonitrile], the half-inhibitory concentration (IC50) is < 50 nM.
For the molecule `Cc1c(C(=O)CN2C3CCC2[C@@H](O)C3)cc(CC2CC(F)(F)C2)n1-c1ccc(C#N)cc1` (mixture of isomers) [Example 135B, (±)-4-(5-((3,3-Difluorocyclobutyl)methyl)-3-(2-((2R)-2-hydroxy-7-azabicyclo[2.2.1]heptan-7-yl)acetyl)-2-methyl-1H-pyrrol-1-yl)benzonitrile], the half-inhibitory concentration (IC50) is < 50 nM.
As to `Cc1c(C(=O)CN2[C@@H]3CC[C@H]2[C@@H](C)C3)cc(C#N)n1-c1ccc(C#N)cc1` (racemic) [Example 136B, (±)-1-(4-Cyanophenyl)-5-methyl-4-(2-((1R,2R,4S)-2-methyl-7-azabicyclo[2.2.1]heptan-7-yl)acetyl)-1H-pyrrole-2-carbonitrile], the IC50 was < 50 nM.
Consider `Cc1cc(C(=O)CN2[C@@H]3CC[C@H]2[C@H]2CCO[C@H]23)c(C)n1-c1ccc(C#N)cc1` (racemic) [Example 139B, (±)-4-(2,5-Dimethyl-3-(2-((3aR,4S,7R,7aR)-octahydro-4,7-epiminobenzofuran-8-yl)acetyl)-1H-pyrrol-1-yl)benzonitrile], for which the IC50 was > 500 nM.
`Cc1cc(C(=O)CN2[C@@H]3CC[C@H]2[C@@H](C)[C@@H]3C)c(C)n1-c1ccc(C#N)cc1` (racemic) [Example 140B, (±)-4-(3-(2-((1R,2R,3R,4S)-2,3-Dimethyl-7-azabicyclo[2.2.1]heptan-7-yl)acetyl)-2,5-dimethyl-1H-pyrrol-1-yl)benzonitrile] came in with an IC50 of 50 to 500 nM.
In the case of `Cc1cc(C(=O)CN2[C@@H]3C=C(C(F)(F)F)[C@H]2CC3)c(C)n1-c1ccc(C#N)cc1` (racemic) [Example 141B, (±)-4-(2,5-Dimethyl-3-(2-((1R,4S)-2-(trifluoromethyl)-7-azabicyclo[2.2.1]hept-2-en-7-yl)acetyl)-1H-pyrrol-1-yl)benzonitrile], the IC50 is > 500 nM.
The molecule `Cc1c(C(=O)CN2C3CCC2C(O)C3)cc([C@@H]2C[C@H]2C)n1-c1ccc(C#N)cc1` (mixture of isomers) [Example 142B, (±)-4-(3-(2-((1S,2R,4R)-2-Hydroxy-7-azabicyclo[2.2.1]heptan-7-yl)acetyl)-2-methyl-5-(2-methylcyclopropyl)-1H-pyrrol-1-yl)benzonitrile] displayed an IC50 of 50 to 500 nM.
Molecule `Cc1cc(C(=O)CN2C3CCC2(C(C)O)CC3)c(C)n1-c1ccc(C#N)cc1` (racemic) [Example 143B, (±)-4-(3-(2-(1-((R)-1-Hydroxyethyl)-7-azabicyclo[2.2.1]heptan-7-yl)acetyl)-2,5-dimethyl-1H-pyrrol-1-yl)benzonitrile] displayed a half-maximal inhibitory concentration (IC50) of 50 to 500 nM.
The molecule `Cc1nc(-c2cc(C(=O)CN3[C@@H]4CC[C@H]3[C@@H](O)C4)c(C)n2-c2ccc(C#N)cc2)cs1` (racemic) [Example 144B, (±)-4-(3-(2-((1R,2R,4S)-2-Hydroxy-7-azabicyclo[2.2.1]heptan-7-yl)acetyl)-2-methyl-5-(2-methylthiazol-4-yl)-1H-pyrrol-1-yl)benzonitrile] showed an IC50 of 50 to 500 nM.
Regarding `Cc1c(C(=O)CN2[C@@H]3CC[C@H]2[C@@H](O)C3)cc(-c2csc(C(F)(F)F)n2)n1-c1ccc(C#N)cc1` (racemic) [Example 145B, (±)-4-(3-(2-((1R,2R,4S)-2-Hydroxy-7-azabicyclo[2.2.1]heptan-7-yl)acetyl)-2-methyl-5-(2-(trifluoromethyl)thiazol-4-yl)-1H-pyrrol-1-yl)benzonitrile], the concentration for half-maximal inhibition (IC50) was > 500 nM.
In the case of `Cc1c(C(=O)CN2[C@@H]3CC[C@H]2[C@@H](O)C3)cc(-c2nccs2)n1-c1ccc(C#N)cc1` (racemic) [Example 146B, (±)-4-(3-(2-((1R,2R,4S)-2-Hydroxy-7-azabicyclo[2.2.1]heptan-7-yl)acetyl)-2-methyl-5-(thiazol-2-yl)-1H-pyrrol-1-yl)benzonitrile], the IC50 was > 500 nM.
As for `Cc1ncc(-c2cc(C(=O)CN3[C@@H]4CC[C@H]3[C@@H](O)C4)c(C)n2-c2ccc(C#N)cc2)s1` (racemic) [Example 147B, (±)-4-(3-(2-((1R,2R,4S)-2-Hydroxy-7-azabicyclo[2.2.1]heptan-7-yl)acetyl)-2-methyl-5-(2-methylthiazol-5-yl)-1H-pyrrol-1-yl)benzonitrile], the IC50 lay in the range of 50 to 500 nM.
With `Cc1cc(C(=O)CN2C3CCC2[C@@H](CC(C)(C)O)C3)c(C)n1-c1ccc(C#N)cc1` (mixture of isomers) [Example 148B, (±)-4-(3-(2-((2S)-2-(2-Hydroxy-2-methylpropyl)-7-azabicyclo[2.2.1]heptan-7-yl)acetyl)-2,5-dimethyl-1H-pyrrol-1-yl)benzonitrile], the IC50 was > 500 nM.
The same measure for `Cc1c(F)c(C(=O)CN2[C@@H]3C=C(C(F)(F)F)[C@H]2CC3)c(C)n1-c1ccc(C#N)cc1` (racemic) [Example 149B, (±)-4-(3-Fluoro-2,5-dimethyl-4-(2-((1R,4S)-2-(trifluoromethyl)-7-azabicyclo[2.2.1]hept-2-en-7-yl)acetyl)-1H-pyrrol-1-yl)benzonitrile]: 50 to 500 nM.
`Cc1c(C(=O)CN2C3CCC2C(O)C3)cc([C@@H](C)C2CCC2)n1-c1ccc(C#N)cc1` (mixture of isomers) [Example 150B, (±)-4-(5-((S)-1-Cyclobutylethyl)-3-(2-((2R)-2-hydroxy-7-azabicyclo[2.2.1]heptan-7-yl)acetyl)-2-methyl-1H-pyrrol-1-yl)benzonitrile] had an IC50 of 50 to 500 nM.
For `Cc1c(C(=O)CN2C3CCC2[C@@H](O)C3)cc(/C=C/CN2C(=O)c3ccccc3C2=O)n1-c1ccc(C#N)cc1` (mixture of isomers) [Example 153B, (±)-4-(5-0E)-3-(1,3-Dioxoisoindolin-2-yl)prop-1-en-1-yl)-3-(2-((1R,2R,4S)-2-hydroxy-7-azabicyclo[2.2.1]heptan-7-yl)acetyl)-2-methyl-1H-pyrrol-1-yl)benzonitrile], the IC50 was < 50 nM.
In turn, `Cc1c(C(=O)CN2C3CCC2[C@@H](O)C3)cc(CCCOC(F)(F)F)n1-c1ccc(C#N)cc1` (mixture of isomers) [Example 155B, (±)-4-(3-(2-((1R,2R,4R)-2-Hydroxy-7-azabicyclo[2.2.1]heptan-7-yl(acetyl)-2-methyl-5-(3-(trifluoromethoxy)propyl)-1H-pyrrol-1-yl)benzonitrile] showed an IC50 of 50 to 500 nM.
On to `Cc1c(C(=O)CN2[C@@H]3CC[C@@H]2[C@@H](O)C3)cc(/C=C/CN)n1-c1ccc(C#N)cc1` (racemic) [Example 156B, (±)-4-(5-((E)-3-Aminoprop-1-en-1-yl)-3-(2-((1S,2R,4S)-2-hydroxy-7-azabicyclo[2.2.1]heptan-7-yl)acetyl)-2-methyl-1H-pyrrol-1-yl)benzonitrile], for which the IC50 is < 50 nM.
`Cc1c(C(=O)CN2[C@H]3CC[C@@H]2[C@@H](O)C3)cc(CC2(Cl)CCC2)n1-c1ccc(C#N)cc1` (racemic) [Example 157B, (±)-4-(5-((1-Chlorocyclobutyl)methyl)-3-(2-((1S,2R,4R)-2-hydroxy-7-azabicyclo[2.2.1]heptan-7-yl)acetyl)-2-methyl-1H-pyrrol-1-yl)benzonitrile]: the IC50 was 50 to 500 nM.
